The source of these data is ChEMBL document CHEMBL1150293, “The pyridoxamine action on Amadori compounds: A reexamination of its scavenging capacity and chelating effect” (Bioorg Med Chem, 2008).

This series is described as follows: Aqueous stability assessed as half life at pH 7.4 by HPLC. In kind it is physicochemical. The conditions noted are these: aqueous solution.

For `O=C(CN1CCOCC1)[C@@H](O)[C@H](O)[C@H](O)CO`, the half-life is 92 h.

In the case of `O=C(CN[C@H](Cc1c[nH]c2ccccc12)C(=O)O)[C@@H](O)[C@H](O)[C@H](O)CO`, the half-life was 25 h.
